From patent US12116343B2, “Inhibitors of APOL1 and methods of using same” (Vertex Pharmaceuticals Incorporated, priority 2020, dated 2024) come the findings set out here.

The target of this assay is T1, G1 APOL1 (Homo sapiens, UniProt O14791, I384M/S342G).
T1 construct: expressed in transfected cells
T1 sequence (O14791 28-398 S342G/I384M): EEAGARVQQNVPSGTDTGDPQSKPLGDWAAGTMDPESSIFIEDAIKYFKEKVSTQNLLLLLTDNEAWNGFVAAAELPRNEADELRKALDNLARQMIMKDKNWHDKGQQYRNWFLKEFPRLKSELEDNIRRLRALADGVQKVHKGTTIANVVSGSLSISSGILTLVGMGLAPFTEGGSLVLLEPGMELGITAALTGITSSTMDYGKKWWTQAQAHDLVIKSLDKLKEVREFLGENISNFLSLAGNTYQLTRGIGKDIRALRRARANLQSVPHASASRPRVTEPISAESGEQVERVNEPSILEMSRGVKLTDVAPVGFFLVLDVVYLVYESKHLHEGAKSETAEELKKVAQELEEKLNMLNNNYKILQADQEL
Briefly: Acute APOL1 Thallium Assay with inducible stable clones of HEK 293 cells. As to conditions: read-out: Thallium Assay (IC50). The format is cell-based. The text has this: Acute APOL1 Thallium Assay with Inducible Stable Clones of HEK 293 Cells
Apolipoprotein L1 (APOL1) proteins form potassium-permeable cation pores in the plasma membrane. APOL1 risk variants (G1 and G2) induce greater potassium flux than G0 in HEK293 cells. This assay exploits the permeability of thallium (Tl+) through ligand-gated potassium channels. The dye produces a bright fluorescent signal upon binding to Tl+ conducted through potassium channels. The intensity of the Tl+ signal is proportional to the number of potassium channels in the open state. Therefore, it provides a functional indication of the potassium channel activities. During the initial dye-loading step, the Tl+ indicator dye as an acetoxymethyl (AM) ester enters the cells through passive diffusion. Cytoplasm esterases cleave the AM ester and relieve its active thallium-sensitive form. The cells are then stimulated with Tl+. The increase of fluorescence in the assay represents the influx of Tl+ into the cell specifically through the potassium channel (i.e. through APOL1 pores), providing a functional measurement of potassium channel/pore activity. The Thallium assay is conducted with cells expressing G1 APOL1.
APOL1 Cell Line (HEK T-Rex Stable Inducible Cell Line) • HEK T-Rex System • Tetracycline (Tet) inducible mammalian expression system. • Stably express the Tet repressor to regulate transcription. • Expression under the full-length CMV promoter. • APOL1 stable inducible cell line Clone used: G1 DC3.25
Tissue Culture Media • Cell Culture Medium • DMEM+10% FBS+P/S+5 μg/mL blasticidin+1 μg/mL puromycin. • 500 mL DMEM+55 mL FBS+5 mL P/S+280 μL blasticidin S HCl (10 mg/mL)+56 μL puromycin (10 mg/mL). • Cell Assay Medium • DMEM with 2% FBS+pen strep.
Instruments and Equipment • Nuaire cell culture hood, Cat. No. 540-600 • 37° C./5% CO2 incubator link to robotic arm, Liconic: STX110 • Molecular Devices FLIPR^Tetra High throughput cellular screening system, Cat. No. FT0324, Molecular Devices • ThermoFisher MultiDrop 384, Cat. No. 5840300 • Biotek Microfill, Cat. No. ASF1000A-4145 • BioRad TC10 cell counter, Cat. No. 145-0010 Assay Procedures
Cells Scaled Up from Frozen Vials • APOL1 G1 3.25 (HEK293 T-Rex) frozen vials: 5 million cells per vial • Step 1, Day 1: Defrost frozen vial into T-225. • Step 2, Day 5: (when 85% confluent): Split one T-225 at 3×10^6 cells per flask. • Step 3, Day 8: Splits cells to set up for the assay plates as described below.
T-Rex APOL1 HEK cells are split twice per week to keep the confluence state below 85% of the culture flask surface area. Cells can be kept until passage 25. • Cell Culture Medium • DMEM high glucose+10% FBS, +P/S, +5 μg/mL blasticidin, +1 μg/mL puromycin. • 500 mL DMEM, +55 mL FBS, +5 mL P/S, +280 μL blasicidin 10 mg/mL, +56 μL Puromycin 10 mg/mL. • Assay Media • Opti-MEM reduced serum medium from Invitrogen.
Preparation of Cell Assay Plates • Culture medium is removed from the x cm^2 T-flask by aspiration. • The cell monolayer is rinsed with PBS 1× at room temperature. PBS is removed by aspiration. • Cells are trypsinized using Trypsin. • The flasks are incubated at room temperature for 2-3 minutes. • Complete DMEM medium is then added. Cell suspension is then transferred to a 50 mL Falcon polypropylene tube. • Cells are then counted using a Biorad TC10 cell counter and the required amount of cells are centrifuged at 1200 RPM for 5 minutes. Required amount is 1.3×10^6 cells/mL APOL1 T-Rex HEK cells. • The pellet is suspended in the assay medium. • Using the MultiDrop, add 20 μL to each well (corresponds to 26000 cells total per well) of a 384-well black, transparent, flat bottom Poly-D coated plate. • Tetracycline as prepared in the following section is added to the cells before plating to induce APOL1 expression. • Plates are left at room temperature for 20 to 30 minutes before incubation at 37° C. and 5% CO2. […]

The mark [1] stands for this setting: HEK 293 T-Rex cells expressing G1 APOL1.

Where two headings read alike, the source gives them in different places.

With `NC(=O)CNC[C@H]1C[C@H](c2c(-c3ccc(F)cc3)[nH]c3c(F)cc(F)cc32)C1` [Compound 445, 2-((((1r,3r)-3-(5,7-difluoro-2-(4-fluorophenyl)-1H-indol-3-yl)cyclobutyl)methyl)amino)acetamide], the IC50 (Table 24, Compounds 287 to 465) is below 250 nM.
With `O=C(NCC(O)CO)[C@H]1C[C@@H](c2c(-c3ccc(F)cc3)[nH]c3c(F)cc(F)cc32)C1` (stereo partly drawn) [Compound 244], under setting [1], the IC50 was above 1000 nM.
As to `CC(=O)NCCNC(=O)C1CC(Cc2c(-c3ccc(F)cc3)[nH]c3c(F)cc(F)cc23)C1` (stereo not drawn) [Compound 320], the IC50 (Table 24, Compounds 287 to 465) is above 1000 nM.
The same measure, in the same setting: the figure for `O=C(Nc1ccc[nH]c1=O)C1CC(Cc2c(-c3ccc(F)cc3)[nH]c3c(F)cc(F)cc23)C1` (stereo not drawn) [Compound 339] is above 1000 nM; for `O=C(CNC[C@H]1C[C@H](c2c(-c3ccc(F)cc3)[nH]c3c(F)cc(F)cc32)C1)NCO` [Compound 448] it is below 250 nM.
In the case of `O=C(NCCO)[C@H]1C[C@@H](c2c(-c3ccc(F)cc3)[nH]c3c(F)cc(F)cc32)C1` [Compound 237], under setting [1], the IC50 lay within 250 to 1000 nM.
The same measure, in the same setting: next, `O=C(NC1(CO)CC1)C1(F)CC(c2c(-c3ccc(F)cc3)[nH]c3c(F)cc(F)cc23)C1` (stereo not drawn) [Compound 285]: below 250 nM.
Turning to `O=C(CN[C@H]1C[C@H](c2c(-c3ccc(F)cc3)[nH]c3c(F)cc(F)cc32)C1)NCO` [Compound 289], for the setting “Table 24, Compounds 287 to 465”, the IC50 fell in the range of 250 to 1000 nM.
For `O=C(NCC1CCOCC1)C1CC(Cc2c(-c3ccc(F)cc3)[nH]c3c(F)cc(F)cc23)C1` (stereo not drawn) [Compound 326], the IC50 (Table 24, Compounds 287 to 465) is above 1000 nM.
Regarding `CC(C)[C@@H](CO)NC(=O)O[C@H]1C[C@H](c2c(-c3ccc(F)cc3)[nH]c3c(F)cc(F)cc32)C1` [Compound 377], the IC50 (Table 24, Compounds 287 to 465) is above 1000 nM.
Still for that read-out and setting: next, `O=C(NCC(O)C(F)F)C1CC(Cc2c(-c3ccc(F)cc3)[nH]c3c(F)cc(F)cc23)C1` (stereo not drawn) [Compound 301]: above 1000 nM.
The same measure, in the same setting: the figure for `CCNC(=O)N1CC(c2c(-c3ccc(F)cc3)[nH]c3c(F)cc(F)cc23)C1` [Compound 464, 3-[5,7-difluoro-2-(4-fluorophenyl)-1H-indol-3-yl]-N-ethyl-azetidine-1-carboxamide] is 250 to 1000 nM; for `NC(=O)CN[C@H]1C[C@H](c2c(-c3ccc(F)cc3)[nH]c3c(F)cc(F)cc32)C1` [Compound 294] it is above 1000 nM; for `O=C(NCc1cn(CC(F)(F)F)cn1)O[C@H]1C[C@H](c2c(-c3ccc(F)cc3)[nH]c3c(F)cc(F)cc32)C1` [Compound 386] it is above 1000 nM.
Same read-out and setting: the figure for `O=C(NC1(CO)CC(F)(F)C1)C1CC(Cc2c(-c3ccc(F)cc3)[nH]c3c(F)cc(F)cc23)C1` (stereo not drawn) [Compound 309] is above 1000 nM.
Turning to `O=C(NCC1COC1)[C@H]1C[C@@H](c2c(-c3ccc(F)cc3)[nH]c3c(F)cc(F)cc32)C1` [Compound 248], the IC50 under setting [1] is above 1000 nM.
Same read-out and setting: the figure for `O=C(NC1(CO)CCC1)[C@H]1C[C@@H](c2c(-c3ccc(F)cc3)[nH]c3c(F)cc(F)cc32)C1` [Compound 240] is 250 to 1000 nM.
For the molecule `C[C@H](O)CNC(=O)O[C@H]1C[C@H](c2c(-c3ccc(F)cc3)[nH]c3c(F)cc(F)cc32)C1` [Compound 365], the IC50 (Table 24, Compounds 287 to 465) was above 1000 nM.
Consider `O=C(NCCn1cccc1)[C@H]1C[C@@H](c2c(-c3ccc(F)cc3)[nH]c3c(F)cc(F)cc32)C1` [Compound 262], for which, under setting [1], the IC50 was above 1000 nM.
In the case of `CC(C)CC(NCC1CC(c2c(-c3ccc(F)cc3)[nH]c3c(F)cc(F)cc23)C1)C(N)=O` (stereo not drawn) [Compound 441], the IC50 (Table 24, Compounds 287 to 465) is above 1000 nM.
For the molecule `Cc1ccc(CNC(=O)O[C@H]2C[C@H](c3c(-c4ccc(F)cc4)[nH]c4c(F)cc(F)cc43)C2)o1` [Compound 375], the IC50 (Table 24, Compounds 287 to 465) was above 1000 nM.
Take `CNC(=O)C(C)NCC1CC(c2c(-c3ccc(F)cc3)[nH]c3c(F)cc(F)cc23)C1` (mixture of isomers) [Compound 436]: the IC50 (Table 24, Compounds 287 to 465) lay in the range of 250 to 1000 nM.
The same measure, in the same setting: next, `C[C@@H](CO)NC(=O)N[C@H]1C[C@H](c2c(-c3ccc(F)cc3)[nH]c3c(F)cc(F)cc32)C1` [Compound 295, 1-((1r,3S)-3-(5,7-difluoro-2-(4-fluorophenyl)-1H-indol-3-yl)cyclobutyl)-3-((S)-1-hydroxypropan-2-yl)urea]: 250 to 1000 nM.
As to `C[C@H](CO)NC(=O)CNC(=O)[C@H]1C[C@H](c2c(-c3ccc(F)cc3)[nH]c3c(F)cc(F)cc32)C1` [Compound 232], the IC50 under setting [1] is above 1000 nM.
In the case of `CC1(O)CC(NC(=O)C2CC(Cc3c(-c4ccc(F)cc4)[nH]c4c(F)cc(F)cc34)C2)C1` (stereo not drawn) [Compound 325], for the setting “Table 24, Compounds 287 to 465”, the IC50 was above 1000 nM.
For `COC1CC1NC(=O)O[C@H]1C[C@H](c2c(-c3ccc(F)cc3)[nH]c3c(F)cc(F)cc32)C1` (stereo partly drawn) [Compound 376], the IC50 (Table 24, Compounds 287 to 465) was above 1000 nM.
Turning to `C[C@H](O)[C@H](CO)NC(=O)O[C@H]1C[C@H](c2c(-c3ccc(F)cc3)[nH]c3c(F)cc(F)cc32)C1` [Compound 366], the IC50 (Table 24, Compounds 287 to 465) is above 1000 nM.
Regarding `CC(C)NC(=O)CN[C@H]1C[C@H](c2c(-c3ccc(F)cc3)[nH]c3c(F)cc(F)cc32)C1` [Compound 290], the concentration for half-maximal inhibition (IC50) (Table 24, Compounds 287 to 465) is above 1000 nM.
Same read-out and setting: the figure for `CO[C@H]1C[C@@H](NC(=O)O[C@H]2C[C@H](c3c(-c4ccc(F)cc4)[nH]c4c(F)cc(F)cc43)C2)C1` [Compound 390] is above 1000 nM.
Still for that read-out and setting: next, `CNC(=O)N(C)CC1CC(c2c(-c3ccc(F)cc3)[nH]c3c(F)cc(F)cc23)C1` (stereo not drawn) [Compound 428]: above 1000 nM.
Turning to `Cn1cnc(CNC(=O)C2CC(Cc3c(-c4ccc(F)cc4)[nH]c4c(F)cc(F)cc34)C2)c1` (stereo not drawn) [Compound 314], the concentration for half-maximal inhibition (IC50) (Table 24, Compounds 287 to 465) is above 1000 nM.
Turning to `C[C@H](CO)N(C)C(=O)[C@H]1C[C@H](c2c(-c3ccc(F)cc3)[nH]c3c(F)cc(F)cc32)C1` [Compound 190], the IC50 under setting [1] is 250 to 1000 nM.
In the case of `O=C([C@H]1C[C@H](c2c(-c3ccc(F)cc3)[nH]c3c(F)cc(F)cc32)C1)N1CCOC(CO)C1` (stereo partly drawn) [Compound 151], the IC50 under setting [1] is above 1000 nM.
Still for that read-out and setting: next, `NC(=O)C(CO)NC(=O)[C@H]1C[C@@H](c2c(-c3ccc(F)cc3)[nH]c3c(F)cc(F)cc32)C1` (stereo partly drawn) [Compound 259]: above 1000 nM.
On to `CC(NC(=O)C1CC(Cc2c(-c3ccc(F)cc3)[nH]c3c(F)cc(F)cc23)C1)C1CCOC1` (mixture of isomers) [Compound 345], for which the IC50 (Table 24, Compounds 287 to 465) is above 1000 nM.
On to `CC(O)(CO)CNC(=O)C1CC(Cc2c(-c3ccc(F)cc3)[nH]c3c(F)cc(F)cc23)C1` (stereo not drawn) [Compound 324], for which the 50% inhibitory concentration (IC50) (Table 24, Compounds 287 to 465) was above 1000 nM.
Still for that read-out and setting: next, `CC1(O)CC(NC(=O)O[C@H]2C[C@H](c3c(-c4ccc(F)cc4)[nH]c4c(F)cc(F)cc43)C2)C1` (stereo partly drawn) [Compound 361]: above 1000 nM; `O=C(NCc1ccc(=O)[nH]c1)C1CC(Cc2c(-c3ccc(F)cc3)[nH]c3c(F)cc(F)cc23)C1` (stereo not drawn) [Compound 346]: above 1000 nM.
On to `CC(C)C(CO)NC(=O)O[C@H]1C[C@H](c2c(-c3ccc(F)cc3)[nH]c3c(F)cc(F)cc32)C1` (stereo partly drawn) [Compound 380], for which, for the setting “Table 24, Compounds 287 to 465”, the IC50 is above 1000 nM.

The term IC50 denotes the point on the concentration scale where inhibition reaches its midpoint.
